We go through 15 compounds from patent publication US11492375B2, “Cyclic peptide immunomodulators” (Bristol-Myers Squibb Company, priority 2017, dated 2022).

PD-1-Ig binding to PD-L1-TVMV-His (PD-L1-His), sequence (Q9NZQ7 other isoform, or with tags, fused parts or gaps): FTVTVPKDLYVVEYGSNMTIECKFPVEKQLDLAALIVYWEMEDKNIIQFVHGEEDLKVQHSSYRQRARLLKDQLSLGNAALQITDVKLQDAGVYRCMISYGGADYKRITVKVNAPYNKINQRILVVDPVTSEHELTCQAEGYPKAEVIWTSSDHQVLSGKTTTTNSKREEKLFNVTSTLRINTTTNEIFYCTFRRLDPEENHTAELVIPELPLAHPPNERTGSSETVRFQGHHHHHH

The first assay addresses PD-1-Ig binding to PD-L1-TVMV-His (PD-L1-His) (Homo sapiens (Human), UniProt Q9NZQ7). The assay can be described thus: PD-1/PD-L1 Homogenous Time-Resolved Fluorescence (HTRF) binding assay. As to conditions: PD-1-Ig/PD-L1-His binding; numeric value; read-out: HTRF IC50 (μM) or Range. An excerpt:
The ability of the macrocyclic peptides of the present disclosure to bind to PD-L1 was investigated using a PD-1/PD-L1 Homogenous Time-Resolved Fluorescence (HTRF) binding assay.
Homogenous Time-Resolved Fluorescence (HTRF) Assays of Binding of Soluble PD-1 to Soluble PD-L1. Soluble PD-1 and soluble PD-L1 refers to proteins with carboxyl-end truncations that remove the transmembrane-spanning regions and are fused to heterologous sequences, specifically the Fc portion of the human immunoglobuling G sequence (Ig) or the hexahistidine epitope tag (His). All binding studies were performed in an HTRF assay buffer consisting of dPBS supplemented with 0.1% (w/v) bovine serum albumin and 0.05% (v/v) Tween-20. For the PD-1-Ig/PD-L1-His binding assay, inhibitors were pre-incubated with PD-L1-His (10 nM final) for 15m in 4 μl of assay buffer, followed by addition of PD-1-Ig (20 nM final) in 1 μl of assay buffer and further incubation for 15 m. PD-L1 fusion proteins from either human, cynomologous macaques, mouse, or other species were used. HTRF detection was achieved using europium crypate-labeled anti-Ig monoclonal antibody (1 nM final) and allophycocyanin (APC) labeled anti-His monoclonal antibody (20 nM final). Antibodies were diluted in HTRF detection buffer and 5 μl was dispensed on top of binding reaction. The reaction was allowed to equilibrate for 30 minutes and signal (665 nm/620 nm ratio) was obtained using an EnVision fluorometer. Additional binding assays were established between PD-1-Ig/PD-L2-His (20 and 5 nM, respectively), CD8O-His/PD-L1-Ig (100 and 10 nM, respectively) and CD80-His/CTLA4-Ig (10 and 5 nM, respectively). Binding/competition studies between biotinylated Compound No. 71 and human PD-L1-His were performed as follows. Macrocyclic peptide inhibitors were pre-incubated with PD-L1-His (10 nM final) for 60 minutes in 4 μl of assay buffer followed by addition of biotinylated Compound No. 71 (0.5 nM final) in 1 μl of assay buffer. Binding was allowed to equilibrate for 30 minutes followed by addition of europium crypated labeled Streptavidin (2.5 pM final) and APC-labeled anti-His (20 nM final) in 5 μl of HTRF buffer. The reaction was allowed to equilibrate for 30 m and signal (665 nm/620 nm ratio) was obtained using an EnVision fluorometer.
Recombinant Proteins. Carboxyl-truncated human PD-1 (amino acids 25-167) with a C-terminal human Ig epitope tag [hPD-1 (25-167)-35-IG] and human PD-L1 (amino acids 18-239) with a C-terminal His epitope tag [hPD-L1(19-239)-tobacco vein mottling virus protease cleavage site (TVMV)-His] were expressed in HEK293T cells and purified sequentially by recombinant Protein A affinity chromatography and size exclusion chromatography. Human PD-L2-His (Sino Biologicals), CD80-His (Sino Biologicals), CTLA4-Ig (RnD Systems) were all obtained through commercial sources.
On the technique in general: In TR-FRET formats the signal depends on donor and acceptor labels being close together.
`CC(C)C[C@@H]1NC(=O)[C@H](CN)NC(=O)[C@@H]2CCCN2C(=O)[C@H](CC(N)=O)NC(=O)[C@H](C)N(C)C(=O)[C@H](Cc2ccc(O)cc2)NC(=O)CSC[C@H](C(=O)NCC(N)=O)NC(=O)[C@@H](C)NC(=O)[C@H]2CC/C=C\CC[C@@H](C(=O)N2C)N(C)C(=O)[C@H](Cc2c[nH]c3ccccc23)NC(=O)[C@H](CO)NC(=O)[C@@H](Cc2c[nH]c3ccccc23)NC(=O)[C@@H]2C[C@@H](O)CN2C1=O` [Example 1103]: the IC50 was found to be 1.5 µM.

Staying with this assay, now noted: PD-1-Ig/PD-L1-His binding; value given as range class; read-out: HTRF IC50 (μM) or Range.
For the compound `CC(C)C[C@@H]1NC(=O)[C@H](Cc2cnc[nH]2)NC(=O)[C@@H]2CCCN2C(=O)[C@H](CC(N)=O)NC(=O)[C@H](C)N(C)C(=O)[C@H](Cc2ccccc2)NC(=O)CSC[C@@H](C(=O)NCC(N)=O)NC(=O)[C@H](CCCNC(=N)N)NC(=O)[C@@H]2CCCC/C=C/CCCC[C@@H](C(=O)N2C)N(C)C(=O)[C@H](Cc2c[nH]c3ccccc23)NC(=O)[C@H](CO)NC(=O)[C@H](Cc2c[nH]c3ccccc23)NC(=O)CN(C)C1=O` [Example 1001], the IC50 was 0.01 to 0.099 µM.

Take `CC(C)C[C@@H]1NC(=O)[C@H](Cc2cnc[nH]2)NC(=O)[C@@H]2CCCN2C(=O)[C@H](CC(N)=O)NC(=O)[C@H](C)N(C)C(=O)[C@H](Cc2ccccc2)NC(=O)CSC[C@@H](C(=O)NCC(N)=O)NC(=O)[C@H](CCCNC(=N)N)NC(=O)[C@@H]2CCCCC/C=C/CCCCC[C@@H](C(=O)N2C)N(C)C(=O)[C@H](Cc2c[nH]c3ccccc23)NC(=O)[C@H](CO)NC(=O)[C@H](Cc2c[nH]c3ccccc23)NC(=O)CN(C)C1=O` [Example 1002]: the IC50 was in the range of 0.01 to 0.099 µM. Same read-out and setting: the figure for `CC(C)C[C@@H]1NC(=O)[C@H](Cc2cnc[nH]2)NC(=O)[C@@H]2CCCN2C(=O)[C@H](CC(N)=O)NC(=O)[C@H](C)N(C)C(=O)[C@H](Cc2ccccc2)NC(=O)CSC[C@@H](C(=O)NCC(N)=O)NC(=O)[C@H](CCCNC(=N)N)NC(=O)[C@@H]2CCCC/C=C\CCCC[C@@H](C(=O)N2C)N(C)C(=O)[C@H](Cc2c[nH]c3ccccc23)NC(=O)[C@H](CO)NC(=O)[C@H](Cc2c[nH]c3ccccc23)NC(=O)CN(C)C1=O` [Example 1100] is 0.01 to 0.099 µM; for `CC(C)C[C@@H]1NC(=O)[C@H](Cc2cnc[nH]2)NC(=O)[C@@H]2CCCN2C(=O)[C@H](CC(N)=O)NC(=O)[C@H](C)N(C)C(=O)[C@H](Cc2ccc(O)cc2)NC(=O)CSC[C@@H](C(=O)NCC(N)=O)NC(=O)[C@H](CCCNC(=N)N)NC(=O)[C@@H]2CCC/C=C\CCC[C@@H](C(=O)N2C)N(C)C(=O)[C@H](Cc2c[nH]c3ccccc23)NC(=O)[C@H](CO)NC(=O)[C@H](Cc2c[nH]c3ccccc23)NC(=O)[C@@H]2C[C@@H](O)CN2C1=O` [Example 1101] it is 0.1 to 2 µM; for `CC(C)C[C@@H]1NC(=O)[C@H](Cc2cnc[nH]2)NC(=O)[C@@H]2CCCN2C(=O)[C@H](CC(N)=O)NC(=O)[C@H](C)N(C)C(=O)[C@H](Cc2ccc(O)cc2)NC(=O)CSC[C@@H](C(=O)NCC(N)=O)NC(=O)[C@H](CCCNC(=N)N)NC(=O)[C@@H]2CC/C=C\CC[C@@H](C(=O)N2C)N(C)C(=O)[C@H](Cc2c[nH]c3ccccc23)NC(=O)[C@H](CO)NC(=O)[C@H](Cc2c[nH]c3ccccc23)NC(=O)[C@@H]2C[C@@H](O)CN2C1=O` [Example 1102] it is 0.1 to 2 µM.

Turning to `CC(C)C[C@@H]1NC(=O)[C@H](CN)NC(=O)[C@@H]2CCCN2C(=O)[C@H](CC(N)=O)NC(=O)[C@H](C)N(C)C(=O)[C@H](Cc2ccc(O)cc2)NC(=O)CSC[C@H](C(=O)NCC(N)=O)NC(=O)[C@@H](CCCN)NC(=O)[C@H]2CCC/C=C\CCC[C@@H](C(=O)N2C)N(C)C(=O)[C@H](Cc2c[nH]c3ccccc23)NC(=O)[C@H](CO)NC(=O)[C@@H](Cc2c[nH]c3ccccc23)NC(=O)[C@@H]2C[C@@H](O)CN2C1=O` [Example 1104], the IC50 was 0.01 to 0.099 µM. On the same count and under the same terms, as for `CC(C)C[C@@H]1NC(=O)[C@H](Cc2cnc[nH]2)NC(=O)[C@@H]2CCCN2C(=O)[C@H](CC(N)=O)NC(=O)[C@@H]2COCCN2C(=O)[C@H](Cc2ccc(O)cc2)NC(=O)CSC[C@H](C(=O)NCC(N)=O)NC(=O)[C@@H](C)NC(=O)C2CCC/C=C\CCC[C@@H](C(=O)N2C)N(C)C(=O)[C@H](Cc2c[nH]c3ccccc23)NC(=O)[C@H](CO)NC(=O)[C@@H](Cc2c[nH]c3ccccc23)NC(=O)[C@@H]2C[C@@H](O)CN2C1=O` [Example 1105], the figure is 0.1 to 2 µM; as for `CC(C)C[C@@H]1NC(=O)[C@H](CN)NC(=O)[C@@H]2CCCN2C(=O)[C@H](CC(N)=O)NC(=O)[C@H](C)N(C)C(=O)[C@H](Cc2ccc(O)cc2)NC(=O)CSC[C@H](C(=O)NCC(N)=O)NC(=O)[C@@H](C)NC(=O)[C@H]2CCC/C=C\CCC[C@@H](C(=O)N2C)N(C)C(=O)[C@H](Cc2c[nH]c3ccccc23)NC(=O)[C@H](CO)NC(=O)[C@@H](Cc2c[nH]c3ccccc23)NC(=O)[C@@H]2C[C@@H](O)CN2C1=O` [Example 1106], 0.1 to 2 µM. Same read-out and setting: as for `CC(C)C[C@@H]1NC(=O)[C@H](CN)NC(=O)[C@@H]2CCCN2C(=O)[C@H](CC(N)=O)NC(=O)[C@H](C)N(C)C(=O)[C@H](Cc2ccc(O)cc2)NC(=O)CSC[C@@H](C(N)=O)NC(=O)[C@H](CCCNC(=N)N)NC(=O)[C@@H]2CCCC/C=C\CCCC[C@@H](C(=O)N2C)N(C)C(=O)[C@H](Cc2c[nH]c3ccccc23)NC(=O)[C@H](CO)NC(=O)[C@H](Cc2c[nH]c3ccccc23)NC(=O)[C@@H]2C[C@@H](O)CN2C1=O` [Example 1107], the figure is 0.01 to 0.099 µM; as for `C[C@H]1C(=O)N[C@@H](CC(=O)O)C(=O)N2CCC[C@H]2C(=O)N[C@@H](CN)C(=O)N[C@@H](CCC(=O)O)C(=O)N2C[C@H](O)C[C@H]2C(=O)N[C@@H](Cc2c[nH]c3ccccc23)C(=O)N[C@@H](CO)C(=O)N[C@@H](Cc2c[nH]c3ccccc23)C(=O)N(C)[C@H]2CCCC/C=C\CCCC[C@@H](C(=O)N[C@@H](CCC(=O)O)C(=O)N[C@H](C(N)=O)CSCC(=O)N[C@@H](Cc3ccc(O)cc3)C(=O)N1C)N(C)C2=O` [Example 1108], 0.002 to 0.0099 µM; as for `CC(C)C[C@@H]1NC(=O)[C@H](CN)NC(=O)[C@@H]2CCCN2C(=O)[C@H](CC(N)=O)NC(=O)[C@H](C)N(C)C(=O)[C@H](Cc2ccc(O)cc2)NC(=O)CSC[C@H](C(=O)NCC(N)=O)NC(=O)[C@@H](CCCNC(=N)N)NC(=O)[C@@H]2CCCC/C=C\CCCC[C@@H](C(=O)N2C)N(C)C(=O)[C@H](Cc2c[nH]c3ccccc23)NC(=O)[C@H](CO)NC(=O)[C@@H](Cc2c[nH]c3ccccc23)NC(=O)[C@@H]2C[C@@H](O)CN2C1=O` [Example 1109], 0.002 to 0.0099 µM. Still for that read-out and setting: as for `CC(C)C[C@@H]1NC(=O)[C@H](Cc2c[nH]cn2)NC(=O)[C@@H]2CCCN2C(=O)[C@H](CC(N)=O)NC(=O)[C@@H]2COCCN2C(=O)[C@H](Cc2ccc(O)cc2)NC(=O)CSC[C@H](C(=O)NCC(N)=O)NC(=O)[C@@H](C)NC(=O)[C@@H]2CCC/C=C\CCC[C@@H](C(=O)N2C)N(C)C(=O)[C@H](Cc2c[nH]c3ccccc23)NC(=O)[C@H](CO)NC(=O)[C@@H](Cc2c[nH]c3ccccc23)NC(=O)[C@@H]2C[C@@H](O)CN2C1=O` [Example 1110], the figure is 0.01 to 0.099 µM; as for `C[C@H]1C(=O)N[C@@H](CC(=O)O)C(=O)N2CCC[C@H]2C(=O)N[C@@H](CN)C(=O)N[C@@H](CCC(=O)O)C(=O)N2C[C@H](O)C[C@H]2C(=O)N[C@@H](Cc2c[nH]c3ccccc23)C(=O)N[C@@H](CO)C(=O)N[C@@H](Cc2c[nH]c3ccccc23)C(=O)N(C)[C@H]2CCCC/C=C\CCCC[C@@H](C(=O)N[C@@H](CCC(=O)O)C(=O)N[C@H](C(=O)NCC(N)=O)CSCC(=O)N[C@@H](Cc3ccc(O)cc3)C(=O)N1C)N(C)C2=O` [Example 1111], 0.002 to 0.0099 µM. For `C[C@@H]1NC(=O)[C@@H]2CCCC/C=C\CCCC[C@@H](C(=O)N2C)N(C)C(=O)[C@H](Cc2c[nH]c3ccccc23)NC(=O)[C@H](CO)NC(=O)[C@H](Cc2c[nH]c3ccccc23)NC(=O)[C@@H]2C[C@@H](O)CN2C(=O)[C@H](CCC(N)=O)NC(=O)[C@H](CN)NC(=O)[C@@H]2CCCN2C(=O)[C@H](CC(=O)O)NC(=O)[C@H](C)N(C)C(=O)[C@H](Cc2ccc(O)cc2)NC(=O)CSC[C@@H](C(=O)NCC(N)=O)NC1=O` [Example 1112], the IC50 is 0.002 to 0.0099 µM.

As usually defined, the IC50 is the midpoint of a concentration-inhibition curve.
